Reference: patent US8222230B2, “Pharmaceutical compositions with superior product performance and patient compliance” (Hoffmann-La Roche Inc., priority 2009, dated 2012)

How the values were obtained:
[1] = pKa of compound 1; format: physicochemical; conditions: weak base
Excerpt: (§1) Compound 1 is being evaluated in the clinic for the treatment of liver infection caused by hepatitis C virus. The estimated daily dose is 1 g-2 g requiring high drug loading in the drug product to provide the best treatment regimen for the patients. […] The high dose and need for an immediate release profile are further complicated by the low bulk density of the drug substance (0.04 to 0.3 g/cc). The conventional manufacturing technologies employing commonly used excipients require the use of multiple densification steps as well as high amounts of excipients such as binders. In addition to the multi-step manufacturing process, the high usage of binder has a negative impact on the dissolution of the product resulting in lower bioavailability.

[2] = pH solubility profile of compound 1 at room temperature (FIG. 1); format: physicochemical; conditions: pH>4, FIG. 1
Excerpt: as §1
FIG. 1 provides a graph illustrating the pH solubility profile of compound 1 at room temperature.

CC(C)C(=O)OC[C@H]1O[C@@H](n2ccc(N)nc2=O)[C@](C)(F)[C@@H]1OC(=O)C(C)C [Compound 1, Isobutyric acid (2R,3R,4R,5R)-5-(4-amino-2-oxo-2H-pyrimidin-1-yl)-4-fluoro-2-isobutyryloxymethyl-4-methyl-tetrahydro-furan-3-yl ester]
pKa [1]: 3.5 | drug solubility vs pH [2]: drops precipitously
